Activity calls are given as the source filed them. No cut-off for these calls is given here.
Key:
Type in all cases: cell-based
[1] = target: T1, E3 ubiquitin-protein ligase UHRF1 (Homo sapiens) (UniProt Q96T88); test: Inhibition of UHRF1 in human MCF7 cells assessed as decrease in methylation at RAR beta exon at 15 uM after 72 hrs by methylation specific-PCR method
T1 sequence (whole entry): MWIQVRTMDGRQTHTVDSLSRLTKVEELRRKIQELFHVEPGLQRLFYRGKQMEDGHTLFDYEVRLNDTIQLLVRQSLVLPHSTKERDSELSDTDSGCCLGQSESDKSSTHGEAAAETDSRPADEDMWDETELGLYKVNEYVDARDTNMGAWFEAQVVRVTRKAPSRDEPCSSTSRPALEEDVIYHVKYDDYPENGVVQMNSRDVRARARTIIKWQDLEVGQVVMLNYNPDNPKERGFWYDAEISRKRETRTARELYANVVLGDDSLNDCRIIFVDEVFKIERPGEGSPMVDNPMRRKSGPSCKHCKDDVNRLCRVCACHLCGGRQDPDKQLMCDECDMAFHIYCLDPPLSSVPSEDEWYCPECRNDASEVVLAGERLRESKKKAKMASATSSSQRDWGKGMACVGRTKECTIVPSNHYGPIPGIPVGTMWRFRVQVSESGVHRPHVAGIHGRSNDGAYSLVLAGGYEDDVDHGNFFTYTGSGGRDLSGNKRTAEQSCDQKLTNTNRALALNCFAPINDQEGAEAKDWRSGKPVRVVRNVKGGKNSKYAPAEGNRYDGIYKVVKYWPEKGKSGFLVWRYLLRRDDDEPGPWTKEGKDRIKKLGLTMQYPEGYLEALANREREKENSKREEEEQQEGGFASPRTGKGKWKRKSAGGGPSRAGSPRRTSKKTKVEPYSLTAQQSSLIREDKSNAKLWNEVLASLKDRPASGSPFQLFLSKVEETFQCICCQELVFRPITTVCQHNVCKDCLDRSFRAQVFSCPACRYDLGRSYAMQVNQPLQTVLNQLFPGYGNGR

[2] = target: T1, E3 ubiquitin-protein ligase UHRF1 (Homo sapiens); test: Inhibition of UHRF1 in human MCF7 cells assessed as reduction in global 5-methylcytosine level at 15 uM after 72 hrs by HPLC-MS/MS analysis relative to control
[3] = target: T1, E3 ubiquitin-protein ligase UHRF1 (Homo sapiens); test: Inhibition of UHRF1 in human MCF7 cells assessed as DNA global demethylation by measuring 5-methylcytosine level at 15 uM after 72 hrs by HPLC-MS/MS analysis (reference value: 1.7 +/- 0.36%); parameters: scale not given: the % may be the effect or the level left
[4] = target: T1, E3 ubiquitin-protein ligase UHRF1 (Homo sapiens); test: Inhibition of UHRF1/DNMT1 protein interaction in human U251 cells at 15 uM after 4 hrs by DAPI staining based P-LISA; conditions: U-251
[5] = target: T1, E3 ubiquitin-protein ligase UHRF1 (Homo sapiens); test: Inhibition of UHRF1/DNMT1 protein interaction in human U251 cells assessed as reduction in 5-methylcytosine level at 15 uM after 72 hrs by ELISA relative to control; conditions: U-251

Row | SMILES | RAR beta exon methylation decrease (activity call) [1] | inhibition [2] | Activity [3] | inhibition [1] | inhibition [4] | inhibition [5]
1 | CC(=O)c1c[nH]c(=O)[nH]c1=O | Active | 56% | 0.74% | – | – | –
2 | O=C1NC(=O)C2(CC2)C(=O)N1 | – | – | 0.82% | Active | – | –
3 | Nc1ncn([C@@H]2O[C@H](CO)[C@@H](O)[C@H]2O)c(=O)n1 | Active | 48% | 0.88% | – | – | –
4 | c1ccc2c(C3CCN(CCN4CCOCC4)C3)c[nH]c2c1 (stereo unspecified) | Active | – | 0.99% | – | – | –
5 | CN(C)c1c[nH]c(=O)[nH]c1=O | Active | – | 0.86% | – | – | –
6 | C/C(NO)=C1\C=NC(=O)NC1=O | – | – | – | – | 50% | 50%
7 | CCOC(=O)c1cnc(=O)[nH]c1N | Active | – | 0.87% | – | – | –
